US12544377B2, “Compounds, compositions and methods of treating or preventing acute lung injury” (Yale University, priority 2017, dated 2026)
Entries after “also recorded” stand apart in the source; their conditions may differ.

Tests used:
LPS-induced lung injury = LPS-induced lung injury in mice; assay type: in vivo; conditions: for difference between HS-DKO and WT control mice in permeability and edema, LPS-induced injury: mice fed diet containing BHA
Protocol: Mice were anesthetized with ketamine/Xylazine (1 gm/kg and 100 mg/kg) and were allowed to inhaled 50 μl of LPS (1 mg/ml) placed as droplets on nares. Mice postures were maintained upright. Twenty-two hours after the induction of injury, 100 μl of FITC-labeled albumin (10 mg/ml) were injected via retro-orbital vein, and 24 hours after the induction of injury, mice were euthanized by exsanguination. To obtain bronchoalveolar lavage fluid, 1 ml of PBS was instilled into lungs and retrieved a via a tracheal catheter. In some experiments, mice were first fed with antioxidant BHA in food (Harlan Laboratory Services) for 7 days before the induction of lung injury.

HCl-induced lung injury = assay: HCl (acid aspiration)-induced lung injury in mice; assay type: in vivo; conditions: for pulmonary permeability, HCl-induced lung injury, treatment after injury: six hours after injury; for lung permeability, HCl-induced lung injury, preventative treatment: 1.5 mg/Kg intra-nasal 0.5 hour before HCl (0.05 M); for survival, HCl-induced lung injury, preventative treatment: 1.5 mg/Kg intra-nasal 0.5 hour before HCl (0.1 M); for HCl-induced acute lung injury / survival of mice: FIG. 15
Protocol: Mice were anaesthetized by ketamine/Xylazine ([…] and 100 mg/kg) and were suspended vertically from their incisors on a custom-made mount for orotracheal instillation. A 22 G catheter (Jelco, Smiths Medical) was guided 1.5 cm below the vocal cords, and 2.5 μl/g of 0.05 M HCl was instilled. Two hours after the induction of injury, 100 μl of FITC-labeled albumin (10 mg/ml) was injected via retro-orbital vein. Measurements were made 6 hours after the induction of injury. Control animals received saline instead of HCl in the same manner. In survival experiments, mice received 2.5 μl/g of 0.1 M HCl orotracheally and the observation period was extended up to 30 h.

[1] = tested on: bleomycin-induced lung fibrosis; assay: Bleomycin-induced lung fibrosis in mice (hydroxyproline levels); assay type: in vivo; conditions: 0.05 unit bleomycin once, one week later 60 mg/kg orally for five days
Text: A long detrimental effect of ALI is fibrosis. […] A bleomycin-induced lung fibrosis model was used in this study: Gan, et al., 2012, Nat. Cell Biol. 14:686.

mouse neutrophils = assay: ROS release assay in mouse neutrophils stimulated with fMLP; conditions: pretreated 10 min before fMLP (1 μM)
Protocol: Mice were euthanized in a CO2 chamber according to approved protocol, bone marrow was harvested from long bones of the mice, red blood cells (RBCs) were lysed with ACK buffer (155 mM NH4Cl, 10 mM KHCO3 and 127 μM EDTA), the cells were layered on a discontinuous Percoll gradient composed of 81%, 62% and 45% Percoll layers, and the cells were isolated from the interphase between 81% and 62% Percoll layers. Cells were washed in HBSS and used for various assays.
Neutrophils were suspended in a reaction mixture (0.25% BSA in HBSS with Ca^2+ and Mg^2+, 10 mM Isoluminol, 100 μ/ml HRP), distributed cells in the well of a 96 well plate, and stimulated with fMLP (10 μM). Isoluminol-enhanced chemiluminescence was recorded continuously in a plate reader (Perkin Elmer).

human neutrophils = assay: ROS production assay in human neutrophils stimulated with fMLP; conditions: fMLP (100 nM), 20 nM pazopanib
Protocol: One day after lung injury induction, lung permeability was determined. […] Six hours after lung injury induction, lung permeability (FIG. 12D) and histology (FIG. 12E) were examined. […] Data from one experiment are presented as mean±sem (Student t-Test, *p<0.05, n=5). […] Six hours after lung injury induction, lung permeability were examined. […] Data from one experiment are presented as mean±sem (Student t-Test, *p<0.05, n=5).

[2] = tested on: p47phox Ser-208 phosphorylation in neutrophils; assay: Western analysis of fMLP-stimulated neutrophils (phospho-Ser-208 p47phox, MAP3K3 protein); conditions: for p47phox phosphorylation at Ser-208 in neutrophils: pretreated 10 min before fMLP (1 μM), phospho-specific antibody
Protocol: One day after lung injury induction, lung permeability (FIG. 5D) and histology (FIG. 5E) were examined. […] The C57Bl mice were treated as above and their survival was analyzed by the Mantel-Cox Log-Rank test.

[3] = 1.5 mg/Kg intra-nasal 1 h after HCl (0.05 M)

**Q.** Which “pazopanib's effect on lung permeability in mice fed BHA” value (LPS-induced lung injury; chew containing BHA, 60 mg/Kg/day pazopanib via gavage, LPS) does the source give for `COc1ccc(O)c(C(C)(C)C)c1` [BHA, butylated hydroxyanisole] here?
**A.** abrogates pazopanib's effect on lung permeability

**Q.** What about the “difference between HS-DKO and WT control mice in permeability and edema, LPS-induced injury” value (LPS-induced lung injury) of the same compound?
**A.** abrogates the difference

**Q.** What about the “difference between HS-DKO and WT control mice in permeability and edema, LPS-induced injury” value (LPS-induced lung injury; listed as butylated hydroxyanisole (BHA)) of the same compound?
**A.** dissipated

**Q.** With `NC1(c2ccc(-c3nc4ccn5c(=O)[nH]nc5c4cc3-c3ccccc3)cc2)CCC1` [MK-2206, 8-[4-(1-Aminocyclobutyl)phenyl]-9-phenyl-2H-[1,2,4]triazolo[3,4-f][1,6]naphthyridin-3-one] as the compound, how does the “effect of pazopanib on permeability in LPS-injured lungs in presence of AKT inhibitor” value (LPS-induced lung injury; MK-2206 10 mg/Kg with or without 60 mg/Kg/day pazopanib via gavage) read?
**A.** abrogates the effect of pazopanib on permeability

**Q.** Which “pulmonary permeability, HCl-induced lung injury, treatment after injury” value (“pulmonary permeability … after injury” below) (HCl-induced lung injury; [3]) does the source give for `Cc1ccc(NC(=O)c2ccc(CN3CCN(C)CC3)cc2)cc1Nc1nccc(-c2cccnc2)n1` [imatinib, 4-[(4-methylpiperazin-1-yl)methyl]-N-(4-methyl-3-{[4-(pyridin-3-yl)pyrimidin-2-yl]amino}phenyl)benzamide] here?
**A.** ineffective in reducing lung permeability; also recorded: does not attenuate HCl-induced lung injury

**Q.** What about the “pulmonary permeability … after injury” value (HCl-induced lung injury; 1.5 mg/Kg intra-nasal 1 h after HCl (0.05 M), listed as Imatinib) of the same compound?
**A.** trend of aggravation of the injury

**Q.** For `Cc1ccc(Nc2nccc(N(C)c3ccc4c(C)n(C)nc4c3)n2)cc1S(N)(=O)=O` [pazopanib, 5-((4-((2,3-dimethyl-2H-indazol-6-yl)(methyl)amino)pyrimidin-2-yl)amino)-2-methylbenzenesulfonamide], which “mortality, LPS-induced lung injury, therapeutic modality” value (LPS-induced lung injury; 1.5 mg/Kg intra-nasal 24 h after LPS) is on record?
**A.** reduced mortality; also recorded: therapeutic treatment of pazopanib reduces mortality

**Q.** What about the “mortality, LPS-induced lung injury, prophylactic modality” value (LPS-induced lung injury; 60 mg/Kg/day via gavage two days before injury) of the same compound?
**A.** reduces mortality

**Q.** What about the “lung injury in mice lacking MEKK2/3 (HS-DKO), LPS” value (LPS-induced lung injury; HS-DKO mice, 60 mg/Kg/day via gavage, FIGS. 12C-12D) of the same compound?
**A.** no effects on lung injury

**Q.** What about the “AKT phosphorylation in LPS-injured HS-DKO lungs” value (LPS-induced lung injury; HS-DKO mice, FIG. 13E) of the same compound?
**A.** little effect on AKT phosphorylation

**Q.** What about the “alveolar wall thickening and edema (histology), LPS-induced lung injury” value (LPS-induced lung injury; WT C57Bl mice, 60 mg/Kg/day via gavage from two days before LPS) of the same compound?
**A.** reduced

**Q.** What about the “pulmonary permeability, LPS-induced lung injury” value (LPS-induced lung injury; WT C57Bl mice, 60 mg/Kg/day via gavage from two days before LPS, one day after injury, 60 mg/kg/day) of the same compound?
**A.** reduced pulmonary permeability; also recorded: attenuates LPS-induced lung injury

**Q.** And the “AKT phosphorylation in LPS-injured lungs” value (LPS-induced lung injury; WT mice, FIG. 13D)?
**A.** increased AKT phosphorylation

**Q.** What about the “lung permeability, HCl-induced lung injury, preventative treatment” value (HCl-induced lung injury) of the same compound?
**A.** pretreatment attenuates HCl-induced lung injury

**Q.** What about the “lung permeability, HCl-induced lung injury, preventative treatment” value (HCl-induced lung injury; listed as Pazopanib) of the same compound?
**A.** effective in reduction of permeability

**Q.** What about the “survival, HCl-induced lung injury, preventative treatment” value (HCl-induced lung injury) of the same compound?
**A.** pretreatment reduces mortality

**Q.** And the “survival, HCl-induced lung injury, preventative treatment” value (HCl-induced lung injury; listed as Pazopanib)?
**A.** extending survival

**Q.** And the “alveolar wall thickening and edema (histology), HCl-induced lung injury” value (HCl-induced lung injury; [3])?
**A.** decreased

**Q.** And the “pulmonary permeability … after injury” value (HCl-induced lung injury; [3])?
**A.** decreased pulmonary permeability; also recorded: attenuates HCl-induced lung injury

**Q.** What about the “survival, HCl-induced lung injury, treatment after injury” value (HCl-induced lung injury; 2.5 mg/Kg intra-nasal 1 h after HCl (0.1 M)) of the same compound?
**A.** significantly extended the survival; also recorded: pazopanib treatment reduces mortality

**Q.** And the “lung injury (permeability, survival) in mice lacking p47phox” value (HCl-induced lung injury; p47phox-deficient mice, FIGS. 16C & 16E)?
**A.** showed no effects; also recorded: abrogated the therapeutic effect of pazopanib

**Q.** What about the “lung fibrosis (levels of hydroxyproline)” value [1] of the same compound?
**A.** inhibits bleomycin-induced lung fibrosis

**Q.** And the “lung fibrosis (levels of hydroxyproline)” value ([1]; listed as Pazopanib)?
**A.** inhibit lung fibrosis

**Q.** And the “ROS production from WT mouse neutrophils” value (mouse neutrophils)?
**A.** led to increases in the ROS production; also recorded: increases ROS release from neutrophils

**Q.** And the “ROS production from human neutrophils” value (human neutrophils)?
**A.** increases ROS production from human neutrophils

**Q.** What about the “increase in MAP3K3 protein content induced by fMLP” value ([2]; neutrophils, fMLP) of the same compound?
**A.** abrogated increase in MAP3K3 protein content

**Q.** And the “p47phox phosphorylation at Ser-208 in neutrophils” value [2]?
**A.** inhibits phosphorylation of Ser-208

**Q.** And the “p47phox phosphorylation at Ser-208 in neutrophils” value ([2]; listed as Pazopanib)?
**A.** inhibit

**Q.** For “Avastin: Avastin, a VEGF inhibitor; described in b209 as a neutralizing anti-VEGFR antibody (FIG. 15)”, which “HCl-induced acute lung injury / survival of mice” value (HCl-induced lung injury) is on record?
**A.** limited effects

**Q.** And the “HCl-induced acute lung injury / survival of mice” value (HCl-induced lung injury; listed as neutralizing anti-VEGFR antibody)?
**A.** no effect in survival
